Test system: 282377-053-R-J1-PDC complex spheroid viability
Assay: Anticancer human tumor 282377-053-R-J1-PDC patient-derived colon adenocarcinoma cell line growth inhibition [POLQ]
Conditions: for IC50: curve of first compound; for viability, T/C: stronger effect = lower value
Outline: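 PDC + HUVEC + MSC complex spheroids; POLQ inhibitors ± partner drugs; top conc. at/near clinical Cmax, else 10 microM (SN-38 1 microM), half-log dilutions; 37 degrees C, 5% CO2.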

[1] = second compound 0.0316 µM, first compound 0.0316 µM
[2] = second compound 0.0316 µM, first compound 0.1 µM
[3] = second compound 0.0316 µM, first compound 0.316 µM
[4] = second compound 0.0316 µM, first compound 1 µM
[5] = second compound 0.0316 µM, first compound 3.16 µM
[6] = second compound 0.0316 µM, first compound 10 µM
[7] = second compound 0.1 µM, first compound 0.0316 µM
[8] = second compound 0.1 µM, first compound 0.1 µM
[9] = second compound 0.1 µM, first compound 0.316 µM
[10] = second compound 0.1 µM, first compound 1 µM
[11] = second compound 0.1 µM, first compound 3.16 µM
[12] = second compound 0.1 µM, first compound 10 µM
[13] = second compound 0.316 µM, first compound 0.0316 µM
[14] = second compound 0.316 µM, first compound 0.1 µM
[15] = second compound 0.316 µM, first compound 0.316 µM
[16] = second compound 0.316 µM, first compound 1 µM
[17] = second compound 0.316 µM, first compound 3.16 µM
[18] = second compound 0.316 µM, first compound 10 µM
[19] = second compound 1 µM, first compound 0.0316 µM
[20] = second compound 1 µM, first compound 0.1 µM
[21] = second compound 1 µM, first compound 0.316 µM
[22] = second compound 1 µM, first compound 1 µM
[23] = second compound 1 µM, first compound 3.16 µM
[24] = second compound 1 µM, first compound 10 µM
[25] = second compound 3.16 µM, first compound 0.0316 µM
[26] = second compound 3.16 µM, first compound 0.1 µM
[27] = second compound 3.16 µM, first compound 0.316 µM
[28] = second compound 3.16 µM, first compound 1 µM
[29] = second compound 3.16 µM, first compound 3.16 µM
[30] = second compound 3.16 µM, first compound 10 µM
[31] = second compound 10 µM, first compound 0.0316 µM
[32] = second compound 10 µM, first compound 0.1 µM
[33] = second compound 10 µM, first compound 0.316 µM
[34] = second compound 10 µM, first compound 1 µM
[35] = second compound 10 µM, first compound 3.16 µM
[36] = second compound 10 µM, first compound 10 µM
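Note: spheroids exposed to compounds for seven days.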
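Throughout, for viability, T/C: 100% = DMSO vehicle control viability.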

O=C(Nc1ccc(O)c(NS(=O)(=O)c2ccc(F)cc2)c1)c1ccc(-c2ccccc2)cc1 + Nc1ccc(C#CCN(C(=O)Cc2ncc(C(F)(F)F)cc2C(F)(F)F)c2ccc(F)cc2)nn1
IC50 (second compound 0.0316 µM): > 10 µM
IC50 (second compound 0.1 µM): > 10 µM
IC50 (second compound 0.316 µM): > 10 µM
IC50 (second compound 1 µM): > 10 µM
IC50 (second compound 3.16 µM): > 10 µM
IC50 (second compound 10 µM): > 10 µM
viability, T/C [1]: 92.8%
viability, T/C [2]: 115%
viability, T/C [3]: 98.1%
viability, T/C [4]: 102%
viability, T/C [5]: 97.9%
viability, T/C [6]: 107%
viability, T/C [7]: 93.1%
viability, T/C [8]: 107%
viability, T/C [9]: 100%
viability, T/C [10]: 97.2%
viability, T/C [11]: 104%
viability, T/C [12]: 103%
viability, T/C [13]: 96.9%
viability, T/C [14]: 101%
viability, T/C [15]: 112%
viability, T/C [16]: 95.4%
viability, T/C [17]: 100%
viability, T/C [18]: 99.8%
viability, T/C [19]: 96.5%
viability, T/C [20]: 95.5%
viability, T/C [21]: 98.7%
viability, T/C [22]: 109%
viability, T/C [23]: 87.1%
viability, T/C [24]: 100%
viability, T/C [25]: 113%
viability, T/C [26]: 113%
viability, T/C [27]: 103%
viability, T/C [28]: 100%
viability, T/C [29]: 109%
viability, T/C [30]: 117%
viability, T/C [31]: 124%
viability, T/C [32]: 108%
viability, T/C [33]: 109%
viability, T/C [34]: 133%
viability, T/C [35]: 110%
viability, T/C [36]: 139%

CC(=O)O[C@H]1C(=O)[C@@]2(C)[C@H]([C@H](OC(=O)c3ccccc3)[C@]3(O)C[C@H](OC(=O)[C@H](O)[C@@H](NC(=O)c4ccccc4)c4ccccc4)C(C)=C1C3(C)C)[C@]1(OC(C)=O)CO[C@@H]1C[C@@H]2O + COC1C(OC(N)=O)C(O)C(Oc2ccc3c(O)c(NC(=O)c4ccc(O)c(CC=C(C)C)c4)c(=O)oc3c2C)OC1(C)C
IC50 (second compound 0.0316 µM): < 0.00949 µM
IC50 (second compound 0.1 µM): 0.0104 µM
IC50 (second compound 0.316 µM): 0.0115 µM
IC50 (second compound 1 µM): 0.0114 µM
IC50 (second compound 3.16 µM): 0.0126 µM
IC50 (second compound 10 µM): 0.0131 µM
viability, T/C (second compound 0.0316 µM, first compound 0.00949 µM): 39.3%
viability, T/C (second compound 0.0316 µM, first compound 0.03 µM): 18.9%
viability, T/C (second compound 0.0316 µM, first compound 0.0949 µM): 19.9%
viability, T/C (second compound 0.0316 µM, first compound 0.3 µM): 20.6%
viability, T/C (second compound 0.0316 µM, first compound 0.949 µM): 19.5%
viability, T/C (second compound 0.0316 µM, first compound 3 µM): 24.1%
viability, T/C (second compound 0.1 µM, first compound 0.00949 µM): 52.5%
viability, T/C (second compound 0.1 µM, first compound 0.03 µM): 21.9%
viability, T/C (second compound 0.1 µM, first compound 0.0949 µM): 20.9%
viability, T/C (second compound 0.1 µM, first compound 0.3 µM): 18.1%
viability, T/C (second compound 0.1 µM, first compound 0.949 µM): 22.1%
viability, T/C (second compound 0.1 µM, first compound 3 µM): 25.3%
viability, T/C (second compound 0.316 µM, first compound 0.00949 µM): 55.7%
viability, T/C (second compound 0.316 µM, first compound 0.03 µM): 20.8%
viability, T/C (second compound 0.316 µM, first compound 0.0949 µM): 19.9%
viability, T/C (second compound 0.316 µM, first compound 0.3 µM): 20.7%
viability, T/C (second compound 0.316 µM, first compound 0.949 µM): 22.9%
viability, T/C (second compound 0.316 µM, first compound 3 µM): 20.6%
viability, T/C (second compound 1 µM, first compound 0.00949 µM): 55.6%
viability, T/C (second compound 1 µM, first compound 0.03 µM): 20.8%
viability, T/C (second compound 1 µM, first compound 0.0949 µM): 16.8%
viability, T/C (second compound 1 µM, first compound 0.3 µM): 17.1%
viability, T/C (second compound 1 µM, first compound 0.949 µM): 22.2%
viability, T/C (second compound 1 µM, first compound 3 µM): 27.9%
viability, T/C (second compound 3.16 µM, first compound 0.00949 µM): 58.5%
viability, T/C (second compound 3.16 µM, first compound 0.03 µM): 23.8%
viability, T/C (second compound 3.16 µM, first compound 0.0949 µM): 15.8%
viability, T/C (second compound 3.16 µM, first compound 0.3 µM): 18.2%
viability, T/C (second compound 3.16 µM, first compound 0.949 µM): 23.1%
viability, T/C (second compound 3.16 µM, first compound 3 µM): 29.4%
viability, T/C (second compound 10 µM, first compound 0.00949 µM): 61.4%
viability, T/C (second compound 10 µM, first compound 0.03 µM): 20.9%
viability, T/C (second compound 10 µM, first compound 0.0949 µM): 16.9%
viability, T/C (second compound 10 µM, first compound 0.3 µM): 20.7%
viability, T/C (second compound 10 µM, first compound 0.949 µM): 24.5%
viability, T/C (second compound 10 µM, first compound 3 µM): 20.2%

CNCc1ccc(-c2[nH]c3cc(F)cc4c3c2CCNC4=O)cc1 + COC1C(OC(N)=O)C(O)C(Oc2ccc3c(O)c(NC(=O)c4ccc(O)c(CC=C(C)C)c4)c(=O)oc3c2C)OC1(C)C
IC50 (second compound 0.0316 µM): > 10 µM
IC50 (second compound 0.1 µM): > 10 µM
IC50 (second compound 0.316 µM): > 10 µM
IC50 (second compound 1 µM): > 10 µM
IC50 (second compound 3.16 µM): > 10 µM
IC50 (second compound 10 µM): > 10 µM
viability, T/C [1]: 115%
viability, T/C [2]: 118%
viability, T/C [3]: 106%
viability, T/C [4]: 110%
viability, T/C [5]: 130%
viability, T/C [6]: 159%
viability, T/C [7]: 113%
viability, T/C [8]: 106%
viability, T/C [9]: 104%
viability, T/C [10]: 108%
viability, T/C [11]: 122%
viability, T/C [12]: 152%
viability, T/C [13]: 104%
viability, T/C [14]: 98.4%
viability, T/C [15]: 96.6%
viability, T/C [16]: 100%
viability, T/C [17]: 133%
viability, T/C [18]: 157%
viability, T/C [19]: 102%
viability, T/C [20]: 99%
viability, T/C [21]: 121%
viability, T/C [22]: 103%
viability, T/C [23]: 128%
viability, T/C [24]: 160%
viability, T/C [25]: 98.7%
viability, T/C [26]: 111%
viability, T/C [27]: 97.6%
viability, T/C [28]: 87.4%
viability, T/C [29]: 121%
viability, T/C [30]: 167%
viability, T/C [31]: 107%
viability, T/C [32]: 122%
viability, T/C [33]: 110%
viability, T/C [34]: 106%
viability, T/C [35]: 127%
viability, T/C [36]: 162%

Reference: PubChem BioAssay AID1963852 (Molecular Pharmacology Branch, DTP, NCI, 2024)
